Measured values published in patent US20010016952A1, “Pathogenesis of cardiomyopathy” (priority 1999, published 2001).
Entries after “also recorded” stand apart in the source; their conditions may differ.

What was measured:
Format in all cases: in vivo, mouse
Sgcd-null mice [1] = test: Treadmill exercise of Sgcd-null mice with Evans blue dye uptake and H&E histopathology of cardiac muscle
Protocol: Treadmill exercise is one of the primary methods used clinically to induce cardiovascular stress in human and animals (Fewell et al., Am. J. Physiol. 273: H1595-H1605 (1997)) and is used to detect cardiovascular abnormalities (e.g. coronary artery dysfunction) that may not be readily apparent at rest. […] All mice were injected with Evans blue dye (EBD) 8 hr before the exercise. EBD is a small molecular mass tracer that tightly complexes with serum albumin. Normally, this is a membrane impermeable molecule, but if the sarcolemma integrity is compromised this dye readily penetrates into the cytoplasm of muscle fibers (Matsuda et al., J. Biochem. (Tokyo) 118: 959-964 (1995); Straub et al., J. Cell Biol. 139: 375-385 (1997)). EBD uptake as well as routine histopathology was examined in the cardiac muscle.
Treadmill exercise. […] Animals were exercised at 12-17 m/min for about 10 min and for 25-30 m/min for the remaining 50 min. If an animal became exhausted, the shock bar of this lane was turned off and the animal was allowed to rest at the back of the treadmill for a short period of time. Wild type (n=20), Sgca- (n=20) and Sgcd-null mice (n=42) were divided in approximately equal numbers of male and females. All mice were injected with Evans blue dye (0.5 mg EBD/0.05 ml PBS) intraperitoneally 8 hr before the exercise. Animals were injected with 50 μl of this solution per 10-g body weight. […] The effect of Nicorandil treatment on treadmill performance in wild type (n=6), Sgca- (n=6) and Sgcd-null mice (n=20) was studied after 3 days of intraperitoneal injection of Nicorandil at a dose of 1 mg/kg body weight twice a day. Quantification of Evans blue positive stained areas in sections of cardiac muscle from Sgca- and Sgcd-null mice (n=20, each group) was done by using the Scion image program. The percentage of positive stained areas was calculated by dividing the area of staining by the total area of the analyzed heart section.

Sgcd-null mice [2] = test: Microfil perfusion of coronary arteries
Text: The Microfil® perfusion technique was used in vivo in order to determine whether disruption of the SG-SSPN complex in smooth muscle of coronary arteries indeed leads to vascular perfusion abnormalities. Wild type, Sgca-null and Sgcd-null mice at the age of 2-6 months were perfused, and cleared sections of the heart were visualized using trans-illumination with low-power magnification. The coronary microvessels were distributed normally and were smoothly tapered in both wild type and Sgca-null mice. […] Pre- and poststenotic dilation as an appearance of microaneurysm was frequently associated with these constrictions. Extensive areas of focal vascular lumen narrowing and a generalized sparseness of perfusion were observed. […] Quantification of vascular abnormalities in Sgcd-null mice at different ages were determined by calculating the mean numbers of abnormal vessels ±SEM in 10 nonadjacent microscopic fields at a magnification of 10×. No lesions were detected in Sgca-null and wild type mice.
Microfil® perfusion. In order to study coronary microvascular perfusion mice were anesthetized with Phenobarbital 75 mg/kg body weight and a bilateral sternum incision was performed to expose the left atrium. 1-1.5 ml of Microfil®, a liquid silicon rubber (Flow tech, Carver, Mass.) was perfused into the left atrium. The heart continued beating for about 1 min and after contraction stopped the heart was rapidly excised and cured on ice for about 10 min. […] Microvascular perfusion was visualized with both epi- and tans-illumination and examined under low power magnification (×10-20). the vascular irregularities in Sgcd-null mice at different ages (2, 4, and 6 months) were quantified by counting the number of abnormal individual vessel segments in 10 nonadjacent microscopic field using a low magnification (10×) and the mean number of abnormal vessels were calculated for each mouse. An average number of abnormal vessels ±SEM were then calculated for each age group. Vessels segments with more than one abnormality were only counted once.

Sgcd-null mice [3] = test: Systemic blood pressure after Nicorandil; conditions: at the dose given
[4] = tested on: wild type or Sgca-null mice; test: Treadmill exercise of wild type or Sgca-null mice after Nicorandil; conditions: after administration of Nicorandil
Protocol: Treadmill exercise. […] Animals were exercised at 12-17 m/min for about 10 min and for 25-30 m/min for the remaining 50 min. If an animal became exhausted, the shock bar of this lane was turned off and the animal was allowed to rest at the back of the treadmill for a short period of time. Wild type (n=20), Sgca- (n=20) and Sgcd-null mice (n=42) were divided in approximately equal numbers of male and females. All mice were injected with Evans blue dye (0.5 mg EBD/0.05 ml PBS) intraperitoneally 8 hr before the exercise. Animals were injected with 50 μl of this solution per 10-g body weight. All surviving animals were kept alive for 36-48 hr and serial sections of cardiac muscle were studied for Evans blue uptake and for histopathological signs of necrosis by using routine H&E technique. The effect of Nicorandil treatment on treadmill performance in wild type (n=6), Sgca- (n=6) and Sgcd-null mice (n=20) was studied after 3 days of intraperitoneal injection of Nicorandil at a dose of 1 mg/kg body weight twice a day. Quantification of Evans blue positive stained areas in sections of cardiac muscle from Sgca- and Sgcd-null mice (n=20, each group) was done by using the Scion image program. The percentage of positive stained areas was calculated by dividing the area of staining by the total area of the analyzed heart section.

[5] = Sgcd-null mice after administration of Nicorandil

O=C(NCCO[N+](=O)[O-])c1cccnc1 [Nicorandil]
EBD uptake in cardiac muscle (Sgcd-null mice [1]; 2 months old exercised Sgcd-null mice, intraperitoneal Nicorandil for 3 days prior to the exercise): No EBD uptake was observed
development of multiple myocardial ischemic lesions (Sgcd-null mice [1]; Sgcd-null mice (n=20), treadmill exercise, Nicorandil intraperitoneal 1 mg/kg body weight twice a day for 3 days prior to exercise): prevented mortality and the development of multiple myocardial lesions; also recorded: prevent the development of multiple myocardial ischemic lesions in all Sgcd-null mice
mortality in treadmill stressed mice (Sgcd-null mice [1]; Sgcd-null mice, Nicorandil given prior to the application of physical stress): prevented mortality
constrictions and focal luminal narrowing of the coronary microvascular bed (perfusion studies) (Sgcd-null mice [2]; Nicorandil treated Sgcd-null mice): free of constrictions and focal luminal narrowing
density of the vasculature (Microfil perfusion) (Sgcd-null mice [2]; [5]): overall greater density of the vasculature
vascular constrictions of coronary arteries (Microfil perfusion) (Sgcd-null mice [2]; [5]): no evidence of vascular constrictions
systemic blood pressure (Sgcd-null mice [3]): did not lower the systemic blood pressure
general behavior during exercise and cardiac muscle abnormalities [4]: No alteration of the general behavior during exercise or any cardiac muscle abnormalities was observed
